According to US5147878A, “Aminoalkoxyphenyl derivatives, process of preparation and compositions containing the same” (Sanofi, priority 1986, dated 1992):
Structures can show the parent of a compound that is named as a salt.

Test system: isolated rat aorta
Test: Calcium inhibitory properties: contractile response to potassium-induced depolarization on isolated rat aorta
Parameters: species or system isolated organ, male Wistar rats
Conditions: for activity at 1 µM / activity at 0.1 µM / activity at 0.01 µM / activity at 0.001 µM: Rattus norvegicus, 1 h, read-out: % of the maximum contractional effect; for % of the maximum contractional effect: 60 min; for activity at 0.001 µM: 10^-9 M
Source text: It is well established that the depolarization of a smooth muscle membrane by potassium renders the latter permeable to extracellular calcium and induces muscle contraction. Consequently, the measurement of the inhibition of the contractile response to depolarization by potassium, or the measurement of a relaxation of the tonic contraction on potassium depolarization, can represent an evaluation of the power of a compound as an inhibitor of the membrane permeability to Ca^++ ions. The technique used was as follows: The aorta was removed from male Wistar rats weighing approximately 300 g, and cut into strips approximately 40 mm long and 3 mm wide. These fragments were placed in a 25-ml isolated organ trough containing a modified Krebs-bicarbonate solution (112 mM NaCl; 5 mM KCl; 25 mM NaHCO3; 1 mM KH2 PO4; 1.2 mM MgSO4; 2.5 mM CaCl2; 11.5 mM glucose, distilled water to 1000 ml) through which a stream of 5-7% carbon dioxide in oxygen was passed, and maintained at 37° C. The preparation was connected to a force microsensor and the contractile response recorded after amplification on a recorder. A tension of 2 g was applied to the preparation. This tension was maintained for 60 minutes in the modified Krebs-bicarbonate solution, and contractions were then induced by replacing the Krebs-bicarbonate solution by a potassium-Krebs solution (17 mM NaCl; 100 mM KCl; 25 mM NaHCO3; 1 mM KH2 PO4; 1.2 mM MgSO4; 2.5 mM CaCl2; 11.5 mM glucose; distilled water to 1000 ml). When the contractile response of the preparation had become reproducible, a given amount of a compound of the invention was introduced into the bath. Sixty minutes later, a new spasm was induced by potassium depolarization. The results obtained on the aorta used in the experiment were then expressed as a percentage of the maximum contractional effect before incubation with the test substance. By way of examples, the results which follow were obtained, the compounds of formula (1) being in the form of the base, hydrochloride or oxalate.

SMILES	activity at 1 µM (10^-6 M)	activity at 0.1 µM (10^-7 M)	activity at 0.01 µM (10^-8 M)	also measured
CCCCN(CCCC)CCCOc1ccc(S(=O)(=O)c2ccccn2)cc1 [Ex. 58, 2-{4-[3-(di-n-butylamino)propyloxybenzenesulphonyl}pyridine oxalate]	84.7%	88.9%		% of the maximum contractional effect (head printed "10^-" (exponent missing; first of three columns before 10^-6 M)): 37%
COc1ccc(CCN(C)CCOc2ccc(S(=O)(=O)c3c(C(C)C)oc4ccccc34)cc2)cc1OC [Ex. 91, 2-Isopropyl-3-[4-{2-[N-methyl-N-(3,4-dimethoxy-β-phenethyl)amino]ethyloxy}benzenesulphonylbenzofuran hemioxalate]		11.1%	53.9%	
CCCN(CCC)CCCOc1ccc(S(=O)(=O)c2c(C)cn3ccccc23)cc1 [Ex. 5, 2-Methyl-1-{4-[3-(di-n-propylamino)propyloxy]benzenesulphonyl}indolizine]	48.9%			
CCCCN(CCCC)CCCOc1ccc(S(=O)(=O)c2c(C(C)C)[nH]c3ccccc23)cc1 [Ex. 106, 2-Isopropyl-3-{4-[3-(di-n-butylamino)propyloxy]benzenesulphonyl}indole acid]	4.9%	37.4%	66%	
CC(C)c1oc2ccccc2c1S(=O)(=O)c1ccc(OCCCNCCc2ccc3c(c2)OCO3)cc1.O=C(O)C(=O)O [Ex. 95, 2-Isopropyl-3-[4-{3-[N-[3-(1,3-benzodioxolyl)]-β-ethyl]amino]propyloxy}benzenesulphonyl benzofuran acid oxalate]				% of the maximum contractional effect (10^-6 M, 1 µM): 13.6%; % of the maximum contractional effect (10^-7 M, 0.1 µM): 50.6%; % of the maximum contractional effect (10^-8 M, 0.01 µM): 81.4%
CC(C)c1cc2ccccn2c1S(=O)(=O)c1ccc(OCCCNC(C)(C)C)cc1 [Ex. 122, 2-isopropyl-3-{4-[3-tert-butylamino)propyloxy]benzenesulphonyl}indolizine hydrochloride]	5.4%	28.1%	76.1%	activity at 0.001 µM: 92.5%
CCCCN(CCCC)CCCOc1ccc(S(=O)(=O)c2ccccc2CC)cc1 [Ex. 117, 2-Ethyl-1-{4-[3-(di-n-butylamino)propyloxy]benzenesulphonyl}benzene acid oxalate]	4.2%	43.4%	85.1%	
COc1ccc(CN(C)CCCOc2ccc(S(=O)(=O)c3c(C(C)C)oc4ccccc34)cc2)cc1OC [Ex. 88, 2-isopropyl-3-[4-{3-[N-methyl-N-(3,4-dimethoxy-benzyl)amino)propyloxy}benzenesulphonyl]benzofuran acid oxalate]	8.7%	11.2%	61.9%	activity at 0.001 µM: 87%
Cc1cc(S(=O)(=O)c2c(-c3ccccc3)cn3ccccc23)ccc1OCCCNC(C)(C)C [Ex. 25, 2-Phenyl-1-{4-[3-(tert-butylamino)propyloxy]-3-methylbenzenesulphonyl}indolizine hydrochloride]	67.7%			
CCCCN(CCCC)CCCOc1c(C)cc(S(=O)(=O)c2c(CC)cn3ccccc23)cc1C.Cl [Ex. 10, 2-Ethyl-1-{4-[3-(di-n-butylamino)propyloxy]-3,5-dimethylbenzenesulphonyl}indolizine hydrochloride]	2.9%	49%	82.6%	Activity ratio (compound / Compound D): 2.2
CC(C)c1occc1S(=O)(=O)c1ccc(OCCCNC(C)(C)C)cc1 [Ex. 79, 2-isopropyl-3-{4-[3-(tert-butylamino)propyloxy]benzenesulphonyl}furan oxalate]	10.3%	77.9%	94.3%	
CCCCN(CCCC)CCOc1ccc(S(=O)(=O)c2c(CC)cn3ccccc23)cc1 [Ex. 22, 2-Ethyl-1-{4-[2-(di-n-butylamino)ethyloxy]benzenesulphonyl}indolizine hydrochloride]		37%	90.2%	
CCCCN(CCCC)CCCOc1ccc(S(=O)(=O)c2ccccc2C(C)C)cc1 [Ex. 115, 2-Isopropyl-1-{4-[3-(di-n-butylamino)propyloxy]benzenesulphonyl}benzene acid oxalate]		43.2%		activity at 0.001 µM: 89.1%
